# Results reported in US20220039384A1, “SELECTIVE WEED CONTROL WITH HALAUXIFEN OR 4-AMINO-3-CHLORO-5-FLUORO-6-(4-CHLORO-2-FLUORO-3-METHOXYPHENYL) PYRIDINE-2-CARBOXYLIC ACID OR DERIVATIVES THEREOF IN VINEYARDS OR PERENNIAL CROPS” (Corteva Agriscience LLC, priority 2013, published 2022).
# Legend:
# Test in all cases: Field trial, pre-emergence dormant application (December), California vineyards: visual weed control
# Type in all cases: in vivo
# Conditions in all cases: applied prior to weed emergence
# [1] = tested on: ERICA (Conyza canadensis, horseweed)
# Text: (§1) As used herein, selective pre- and post-emergence control of undesirable vegetation means preventing, reducing, killing, or otherwise adversely modifying the development of the undesirable vegetation in the presence of crop plants with limited adverse effect on the crop plants. For example, a broadleaf weed control of 80% (rated visually) with crop injury of less than or equal to 20% (rated visually) would constitute selective control. In some embodiments the adverse effect on crop plants is limited to less than 10% visually rated crop injury. Visual crop injury is a composite rating accounting for all phytotoxic effects including chlorosis, necrosis, growth inhibition, epinasty, delays in maturity and seed or fruit deformity. Visual weed control is a composite rating accounting for reductions in pest plant biomass and/or stand reduction.
# (§2) Small plot research experiments were conducted in Fresno, Calif., USA to evaluate the pre-emergence and post-emergence herbicidal weed control activity and the vines crop tolerance to pre-emergence and post-emergence application of Compound I and Compound II to the weeds. Application water volume of 100 to 187 liters per hectare (L/ha) was used for all experiments. All treatments were applied with a standard small plot carbon dioxide (CO2) backpack sprayer. All treatments were tank-mixed with Crop Oil Concentrate (COC), a well known adjuvant, at 2.34 L/ha. Experimental emulsifiable concentrate (EC) formulations were used for Compounds I and II. The dimethylammonium (DMA) salt of glyphosate was used in all trials. Pindar® GT is a commercial formulation containing a pre-mix of penoxsulam+oxyfluorfen (10+476 grams of active ingredient per liter (g ai/L), respectively). Vine crop stage was dormant (no leaves on the vines during the winter) or early spring growth at the time of Compound I or Compound II application. Generally, weeds were not emerged for the pre-emergence treatments or were at the two to six-leaf stage at the time of the post-emergence herbicide application.
# (§3) Tables 1, 2 and 6 provide weed control results from pre-emergence applications of Compounds I and/or II prior to weed emergence; Tables 4, 7 and 8 provide weed control results from post-emergence applications of Compounds I and/or II applied to actively growing weeds; Tables 3 and 5 provide vine response data from pre-emergence and post-emergence applications of Compound I respectively.
# [2] = tested on: CAPBP (Capsella bursa-pastoris, Shepherd's purse)
# Text: as §1, §2, §3
# [3] = tested on: MALPA (Malva parviflora, smallflower malva)
# Text: as §1, §2, §3
# [4] = tested on: EROCI (Erodium cicutarium, redstem filaree)
# Text: as §1, §2, §3
# [5] = tested on: POAAN (Poa annua, annual bluegrass)
# Text: as §1, §2, §3
# [6] = tested on: HORMU (Hordeum murinam, wall barley)
# Text: as §1, §2, §3
# [7] = tested on: PANCA (Panicum capillare, witchgrass)
# Text: as §1, §2, §3
compound,measurement,setting,value
"COC(=O)c1nc(-c2ccc(Cl)c(OC)c2F)cc(N)c1Cl [I—Me, methyl 4-amino-3-chloro-6-(4-chloro-2-fluoro-3-methoxyphenyl)pyridine-2-carboxylate]",% Visual Control 90 DAA ERICA,[1]; 10 g ae/ha,75%
same,% Visual Control 184 DAA ERICA,[1]; 10 g ae/ha,92%
same,% Visual Control 90 DAA ERICA,[1]; 20 g ae/ha,100%
same,% Visual Control 184 DAA ERICA,[1]; 20 g ae/ha,97%
same,% Visual Control 90 DAA ERICA,[1]; 40 g ae/ha,100%
same,% Visual Control 184 DAA ERICA,[1]; 40 g ae/ha,100%
same,% Visual Control 90 DAA CAPBP,[2]; 10 g ae/ha,62%
same,% Visual Control 90 DAA CAPBP,[2]; 20 g ae/ha,58%
same,% Visual Control 90 DAA CAPBP,[2]; 40 g ae/ha,82%
same,% Visual Control 90 DAA MALPA,[3]; 10 g ae/ha,85%
same,% Visual Control 184 DAA MALPA,[3]; 10 g ae/ha,45%
same,% Visual Control 90 DAA MALPA,[3]; 20 g ae/ha,88%
same,% Visual Control 184 DAA MALPA,[3]; 20 g ae/ha,60%
same,% Visual Control 90 DAA MALPA,[3]; 40 g ae/ha,89%
same,% Visual Control 184 DAA MALPA,[3]; 40 g ae/ha,47%
same,% Visual Control 90 DAA EROCI,[4]; 10 g ae/ha,58%
same,% Visual Control 184 DAA EROCI,[4]; 10 g ae/ha,47%
same,% Visual Control 90 DAA EROCI,[4]; 20 g ae/ha,72%
same,% Visual Control 184 DAA EROCI,[4]; 20 g ae/ha,52%
same,% Visual Control 90 DAA EROCI,[4]; 40 g ae/ha,82%
same,% Visual Control 184 DAA EROCI,[4]; 40 g ae/ha,55%
same,% Visual Control 90 DAA POAAN,[5]; 10 g ae/ha,58%
same,% Visual Control 184 DAA POAAN,[5]; 10 g ae/ha,48%
same,% Visual Control 90 DAA POAAN,[5]; 20 g ae/ha,65%
same,% Visual Control 184 DAA POAAN,[5]; 20 g ae/ha,28%
same,% Visual Control 90 DAA POAAN,[5]; 40 g ae/ha,63%
same,% Visual Control 184 DAA POAAN,[5]; 40 g ae/ha,47%
same,% Visual Control 90 DAA HORMU,[6]; 10 g ae/ha,100%
same,% Visual Control 184 DAA HORMU,[6]; 10 g ae/ha,90%
same,% Visual Control 90 DAA HORMU,[6]; 20 g ae/ha,100%
same,% Visual Control 184 DAA HORMU,[6]; 20 g ae/ha,88%
same,% Visual Control 90 DAA HORMU,[6]; 40 g ae/ha,100%
same,% Visual Control 184 DAA HORMU,[6]; 40 g ae/ha,92%
same,% Visual Control 184 DAA PANCA,[7]; 10 g ae/ha,60%
same,% Visual Control 184 DAA PANCA,[7]; 20 g ae/ha,33.3%
same,% Visual Control 184 DAA PANCA,[7]; 40 g ae/ha,63.3%
